# Data published in patent US6586441B2, “Adenosine receptor ligands and their use in the treatment of disease” (Hoffman-La Roche Inc., priority 2000, dated 2003).
# Biological target: T1, human adenosine A2A receptor (Homo sapiens, UniProt P29274)
# T1 construct: expressed in transfected cells; host or cells: CHO cells, semliki forest virus expression system; membrane preparation
# Assay: Human adenosine A2A receptor [3H]-SCH-58261 binding assay
# Details: human A2a receptor, membranes of CHO cells, [3H]-SCH-58261
# Procedure: The gene encoding human adenosine A2A receptor was recombinantly introduced and expressed in chinese hamster ovary (CHO) cells using the semliki forest virus expression system. Cells were harvested, washed twice by centrifugation, homogenised and again washed by centrifugation. The final washed membrane pellet was suspended in a Tris (50 mM) buffer containing 120 mM NaCl, 5 mM KCl, 2 mM CaCl2 and 10 mM MgCl2 (pH 7.4) (buffer A). The [^3H]-SCH-58261 (Dionisotti et al., 1997, Br. J. Pharmacol. 121, 353; 1 nM) binding assay was carried out in 96-well plates in the presence of 2.5 μg of membrane protein, 0.5 mg of Ysi-poly-1-lysine SPA beads and 0.1 U adenosine deaminase in a final volume of 200 μl of buffer A. Non-specific binding was defined using xanthine amine congener (XAC; […]). Compounds were tested at 10 concentrations from 10 μM-0.3 nM. All assays were conducted in duplicate and repeated at least two times. Assay plates were incubated for 1 hour at room temperature before centrifugation and then bound ligand determined using a Packard Topcount scintillation counter. IC50 values were calculated using a non-linear curve fitting program and Ki values calculated using the Cheng-Prussoff equation.
# T1 sequence (P29274 whole entry): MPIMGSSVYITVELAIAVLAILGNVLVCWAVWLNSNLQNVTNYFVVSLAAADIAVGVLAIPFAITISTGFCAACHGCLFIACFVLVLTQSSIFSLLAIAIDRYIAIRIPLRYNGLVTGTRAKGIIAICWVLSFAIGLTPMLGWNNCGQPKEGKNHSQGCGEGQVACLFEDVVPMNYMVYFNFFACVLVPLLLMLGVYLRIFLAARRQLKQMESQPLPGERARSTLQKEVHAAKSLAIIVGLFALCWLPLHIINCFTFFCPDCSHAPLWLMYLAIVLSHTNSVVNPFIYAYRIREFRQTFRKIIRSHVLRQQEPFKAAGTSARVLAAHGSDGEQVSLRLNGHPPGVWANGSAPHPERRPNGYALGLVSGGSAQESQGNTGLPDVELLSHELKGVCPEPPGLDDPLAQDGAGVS
row,pKi (affinity to the human A2a receptor),Compound
1,8.12,"Cc1ccnc(CNc2nc(N)nc(C3=CCCO3)c2C#N)c1 [Example 464, 2-Amino-4-(4,5-dihydro-furan-2-yl)-6-[(4-methyl-pyridin-2-ylmethyl)-amino]-pyrimidine-5-carbonitrile]"
2,8.97,"Cc1cnc(COc2nc(N)nc(-c3ccc(C)o3)c2C#N)c(C)c1 [Example 466, 2-Amino-4-(3,5-dimethyl-pyridin-2-ylmethoxy)-6-(5-methyl-furan-2-yl)-pyrimidine-5′-carbonitrile]"
3,8.96,N#Cc1c(SCCc2ccccn2)nc(N)nc1-c1ccc(Cl)o1 [Example 478]
4,8.88,"N#Cc1c(NCc2ccccc2Br)nc(N)nc1-c1ccc(Br)o1 [Example 512, 2-Amino-4-(2-bromo-benzylamino)-6-(5-bromo-furan-2-yl)-pyrimidine-5-carbonitrile]"

# Same assay, conditions: human A2a receptor, membranes of CHO cells, [3H]-SCH-58261; read-out: pKi (affinity to the human A2a receptor) (converted)
row,Ki,Compound
1,1.91 nM,"Cc1cccnc1COc1cc(N)nc(-c2ccco2)c1C#N [Example 383, 6-Amino-2-furan-2-yl-4-(3-methyl-pyridin-2-yl-methoxy)-nicotinonitrile]"
2,3.02 nM,"N#Cc1c(OCCc2ccccn2)cc(N)nc1-c1ccco1 [Example 384, 6-Amino-2-furan-2-yl-4-(2-pyridin-2-yl-ethoxy)-nicotinonitrile]"
3,8.32 nM,"N#Cc1c(N)nc(SCc2ccccc2)c(C#N)c1-c1cccs1 [Example 389, 2-Amino-6-benzylsulfanyl-4-thiophen-2-yl-pyridine-3.5-dicarbonitrile]"
4,0.692 nM,"Cc1cnc(COc2nc(N)nc(-c3ccco3)c2C#N)c(C)c1 [Example 401, 2-Amino-4-(3,5-dimethyl-pyridin-2-ylmethoxy)-6-furan-2-yl-pyrimidine-5-carbonitrile]"
5,2.14 nM,"Cc1cnc(CNc2nc(N)nc(-c3ccco3)c2C#N)c(C)c1 [Example 402, 2-Amino-4-[(3,5-dimethyl-pyridin-2-ylmethyl)-amino]-6-furan-2-yl-pyrimidine-5-carbonitrile]"
6,7.41 nM,"N#Cc1c(OCCc2ccccn2)nc(N)nc1-c1cccc(F)c1 [Example 405, 2-Amino-4-(3-fluoro-phenyl)-6-(2-pyridin-2-yl-ethoxy)-pyrimidine-5-carbonitrile]"
7,1.35 nM,"Cc1coc(-c2nc(N)nc(SCCc3ccccn3)c2C#N)c1 [Example 422, 2-Amino-4-(4-methyl-furan-2-yl)-6-(2-pyridin-2-yl-ethylsulfanyl)-pyrimidine-5-carbonitrile]"
8,3.02 nM,"Cc1coc(-c2nc(N)nc(OCCc3ccccn3)c2C#N)c1 [Example 423, 2-Amino-4-(4-methyl-furan-2-yl)-6-(2-pyridin-2-yl-ethoxy)-pyrimidine-5-carbonitrile]"
9,1.17 nM,"N#Cc1c(SCCc2ccccn2)nc(N)nc1-c1cc(Br)co1 [Example 521, 2-Amino-4-(4-bromo-furan-2-yl)-6-(2-pyridin-2-yl-ethylsulfanyl)-pyrimidine-5-carbonitrile]"
10,5.75 nM,"N#CCc1ccc(-c2nc(N)nc(SCCc3ccccn3)c2C#N)o1 [Example 524, 2-Amino-4-(5-cyanomethyl-fran-2-yl)-6-(2-pyridin-2:yl-ethylsulfanyl)-pyrimidine-5-carbonitrile]"
11,0.871 nM,"N#Cc1c(OCCc2ccccn2)nc(N)nc1-c1ccc(Cl)o1 [Example 525, 2-Amino-4-(5-chloro-furan-2-yl)-6-(2-pyridin-2-yl-ethoxy)-pyrimidine-5-carbonitrile]"
12,4.27 nM,"Cc1cnc(COc2nc(N)nc(-c3ccc(Cl)o3)c2C#N)c(C)c1 [Example 526, 2-Amino-4-(5-chloro-furan-2-yl)-6-(3,5-dimethyl-pyridin-2-ylmethoxy)-pyrimidine-5-carbonitrile]"
13,1.74 nM,"Cc1cccnc1COc1nc(N)nc(-c2ccc(Cl)o2)c1C#N [Example 530, 2-Amino-4-(5-chloro-furan-2-yl)-6-(3-methyl-pyridin-2-yl-methoxy)-pyrimidine-5-carbonitrile]"
